Source: the pKa sets of Baltruschat and Czodrowski (2020)

| SMILES | pKa |
| --- | --- |
| NC(=O)c1ccc(Nc2c3ccccc3nc3ccccc23)cc1 | 6.47 |
| Cc1cc(Cl)cc(C)c1N=C1NCCN1 | 10.2 |
| O=C(Nc1ccon1)N1CCN(Cc2cccc(Oc3ccc(Cl)cc3)c2)CC1 | -2.97 |
| OCCN1CCN(CCCN2c3ccccc3Sc3ccc(Cl)cc32)CC1 | 7.8 |
| COC(=O)Nc1ccc(Nc2c3ccccc3nc3ccccc23)cc1 | 7.64 |
| Cc1cnc(NCCc2ccccc2)c(=O)n1CC(=O)NCc1ccc(C(=N)N)s1 | 10.3 |
| BP(=O)(OC[C@H]1O[C@@H](n2cnc3c(N)nc(SC)nc32)[C@H](O)[C@@H]1O)OP(=O)(O)C(F)(F)P(=O)(O)O (some centres undefined) | 7 |
| Cn1ccnc1[N+](=O)[O-] | 0.48 |
| CC1=NS(=O)(=O)c2cc(Cl)ccc2N1 | 8.62 |
| c1ccc(CN2CCN(CCCc3c[nH]c4ccc(-n5cnnc5)cc34)CC2)cc1 | 8.2 |
| Cc1cnc(NCCc2ccccc2)c(=O)n1CC(=O)NCc1ccc(C(=N)NO)s1 | 4.1 |
| NC(=O)C(F)(F)F | 17.2 |
| CCCCCCOC(=O)NCCCC(C)Nc1cc(OC)cc2cccnc12 (centres undefined) | 16.2 |
| CN(C)CCNC(=O)c1cccc2c(N)c3ccccc3nc12 | 8.3 |
| CN1CC[C@H](N(C)C(=O)N2CC(c3cc(F)ccc3F)=C[C@@]2(CO)c2ccccc2)[C@@H](F)C1 | 6.6 |
| COc1cc(NS(C)(=O)=O)ccc1Nc1c2ccccc2nc2cc(I)ccc12 | 6.77 |
| CN(C)CCCN1c2ccccc2CCc2ccc(Cl)cc21 | 9.38 |
| Cc1cc(C)c(N=C2NCCN2)c(Cl)c1 | 9.59 |
| CCCCN | 10.7 |
| CNS(=O)(=O)Cc1ccc2[nH]cc(CCN(C)C)c2c1 | 9.5 |
| O=C1Nc2ccc(Cl)cc2C1(c1c[nH]c2ccccc12)c1c[nH]c2ccccc12 | -6.84 |
| CCN(CC)C(=O)[C@@H]1C=C2c3cccc4[nH]cc(c34)C[C@H]2N(C)C1 | 7.8 |
| C[C@H](CCC(=O)O)[C@H]1CC[C@H]2[C@@H]3[C@@H](O)C[C@@H]4C[C@H](O)CC[C@]4(C)[C@H]3CC[C@]12C | 5.08 |
| CN(C)CCC=C1c2ccccc2C=Cc2ccccc21 | 9.69 |
| CC(CN1c2ccccc2Sc2ccccc21)N(C)C (centres undefined) | 9.1 |

| SMILES | pKa |
| --- | --- |
| CC(C)(C)NCC(O)COc1cccc2c1C[C@H](O)[C@H](O)C2 (some centres undefined) | 9.67 |
| Nc1ccc(S(=O)(=O)Nc2ccc(Nc3c4ccccc4nc4ccccc34)cc2)cc1 | 7.15 |
| O=C(O)c1ccc(-c2ccc(O[C@H]3O[C@H](CO)[C@@H](O)[C@H](O)[C@@H]3O)cc2)cc1 | 3.88 |
| COc1ccc(-c2nnc(C(=O)N3CC(Oc4ccc(CN5CCCC56COC6)cc4)C3)o2)cc1 | 6 |
| COC(=O)c1ccc(OS(N)(=O)=O)cc1 | 8.28 |
| CCCCS(=O)(=O)Nc1ccc(Nc2c3ccccc3nc3ccccc23)cc1 | 7.18 |
| CCC12CC3CC(CC(N)(C3)C1)C2 | 10.6 |
| Cc1nc2c3c(c(C(=O)N(C)C)cn2c1C)CCC(c1ccccc1)O3 (centres undefined) | 7.15 |
| Cc1nc(N)ncc1CNC(=O)Cn1c(C)ccc(NS(=O)(=O)Cc2cccc3c2OCCO3)c1=O | 4.2 |
| COc1cccc(S(=O)(=O)Nc2cccn(CC(=O)NCc3ccc(C(=N)N)cc3)c2=O)c1 | 10.2 |
| CS(=O)(=O)c1ccc(Nc2c3ccccc3nc3ccccc23)cc1 | 5.81 |
| CS(=O)(=O)Nc1ccc(Nc2c3ccccc3nc3ccccc23)cc1.Cl | 7.19 |
| Cn1ccnc1Br | 3.82 |
| Clc1cccc(Cl)c1NC1=NCCN1 | 8.05 |
| Cc1ccccc1N=C1NCCN1 | 10.2 |
| C/C(=N\N=C(/S)N/N=C(\S)Nc1cccc(C(F)(F)F)c1)c1ccccn1 | 6.79 |
| Cc1cnc(NCCc2ccccc2)c(=O)n1CC(=O)NC[C@@H]1CNC(N)=N[C@@H]1C | 14 |
| COCC1CC(C(=O)NC[C@H]2CCCO2)CN(Cc2nc(N3CCOCC3)oc2C)C1 (some centres undefined) | 7.8 |
| CNc1ccnc(N2CCc3ccccc3C2)c1 | 8.9 |
| COc1ccc2c(Nc3ccc(NS(C)(=O)=O)cc3OC)c3ccccc3nc2c1 | 7.81 |
| CN(C)CCCNc1c2ccccc2nc2cccc([N+](=O)[O-])c12 | 6.21 |
| CCS(=O)(=O)Nc1ccc(Nc2c3ccccc3nc3ccccc23)cc1 | 7.19 |
| CC(C)(C)NC[C@H](O)COc1nsnc1N1CCOCC1 | 8.8 |
| O=C(c1ccc(CN2CCOCC2)cc1)N1CCN(C2CCC2)CC1 | 6.5 |
| CCC12CCC(=O)C=C1c1c(cc(OCC(=O)OC(C)(C)C(=O)O)c(Cl)c1Cl)C2 (centres undefined) | 3.8 |

| SMILES | pKa |
| --- | --- |
| CNc1ccc([N+](=O)[O-])c2c(NCCCN(C)C)ccnc12 | 4.22 |
| COc1cc(NS(C)(=O)=O)ccc1Nc1c2ccccc2nc2cc(C(C)C)ccc12 | 7.66 |
| COc1ccc2c(c1)N(C[C@H](C)CN(C)C)c1ccccc1S2 | 9.19 |
| Clc1ccccc1N=C1NCCN1 | 9.15 |
| COc1cc(NS(C)(=O)=O)ccc1Nc1c2ccccc2nc2c(Br)cccc12 | 6.09 |
| c1c[nH]nn1 | 1.17 |
| O=S(=O)(O)CCc1ccc(Nc2c3ccccc3nc3ccccc23)cc1 | 7.77 |
| CN(C)CC1C2c3ccccc3C(c3ccccc32)C1CN(C)C (centres undefined) | 9.19 |
| Cc1cnc(NCCc2ccccc2)c(=O)n1CC(=O)NCc1cnc(N)nc1 | 3.9 |
| CCCCCCCOC(=O)c1ccc(OS(N)(=O)=O)cc1 | 8.27 |
| C/C(=N\N=C(/S)N/N=C(\S)Nc1ccccc1Cl)c1ccccn1 | 7.24 |
| Brc1cc(Br)c(N=C2NCCN2)c(Br)c1 | 7.46 |
| Cl.Fc1ccc2c(c1)N(CCCN1CCCCC1)c1cc(F)ccc1CC2 | 7.6 |
| Cc1nc(N)ncc1CNC(=O)Cn1c(C)ccc(NS(=O)(=O)Cc2ccccc2)c1=O | 4.2 |
| O=C(NCC1CCCCN1)c1cc(OCC(F)(F)F)ccc1OCC(F)(F)F (centres undefined) | 9.3 |
| Cc1nc(N)ncc1CNC(=O)Cn1c(C)cnc(NCC(F)(F)c2ccccc2)c1=O | 4.2 |
| Cc1c2ccccc2nc2c(C(O)=NCCN(C)C)cccc12 | 4.34 |
| CNC(=O)c1cccc2c(Nc3ccc(NS(C)(=O)=O)cc3OC)c3ccccc3nc12 | 6.36 |
| NS(=O)(=O)CCc1ccc(Nc2c3ccccc3nc3ccccc23)cc1 | 7.43 |
| Oc1nsc2c1CNCC2 | 9.2 |
| COc1ccc2c3c1O[C@H]1[C@@H](O)C=C[C@H]4[C@@H](C2)N(C)CC[C@@]341 | 8.2 |
| CC(C)NC1=NS(=O)(=O)c2cc(Cl)ccc2N1 | 9.51 |
| CNc1ccc(Nc2c3ccccc3nc3ccccc23)cc1 | 8.42 |
| COC(=O)C1=C(C)NC(C)=C(C(=O)OCCN(C)Cc2ccccc2)C1c1cccc([N+](=O)[O-])c1 (centres undefined) | 7.6 |
| Cc1cc(OCCN2CCOCC2)nn1-c1ccc2ccccc2c1 | 6.5 |

| SMILES | pKa |
| --- | --- |
| CN1C=CN(C2NC(C(F)(F)F)=CN2c2ccc(S(N)(=O)=O)cc2)C=C1 (centres undefined) | 7.34 |
| O=c1[nH]c2cc(Cl)ccc2c(O)c1-c1ccccc1 | 5.4 |
| Cn1ccnc1N | 8.54 |
| O=C(NCc1ccccc1)C1=CC2c3ccccc3C1c1ccccc12 | -2.01 |
| CCNc1ccc(Nc2c3ccccc3nc3ccccc23)cc1 | 8.3 |
| CC(C)(C)NCC(O)c1ccc(O)c(CO)c1 (centres undefined) | 9.3 |
| COc1ccc2nc3ccccc3c(Nc3ccc(NS(C)(=O)=O)cc3)c2c1 | 6.87 |
| COc1cc(NS(C)(=O)=O)ccc1Nc1c2ccccc2nc2ccc(I)cc12 | 6.6 |
| CNC(=O)Nc1ccc(Nc2c3ccccc3nc3ccccc23)cc1 | 7.77 |
| CCCCOC(=O)c1ccc(OS(N)(=O)=O)cc1 | 8.07 |
| O=C(O)[C@H]1O[C@@H](O)[C@H](O)[C@@H](O)[C@@H]1O | 3.2 |
| COc1cc(NS(C)(=O)=O)ccc1Nc1c2ccccc2nc2cc(Br)ccc12 | 6.84 |
| Cc1ccc(C(=O)c2ccc(CC(=O)O)n2C)cc1 | 3.5 |
| NC(=O)CCCc1ccc(Nc2c3ccccc3nc3ccccc23)cc1 | 7.67 |
| CCc1cccc(CC)c1NC1=NCCN1 | 10.6 |
| CN(C)CCCCc1ccc(C2(C)COC2)cc1 | 9.9 |
| Cc1ncc2n1-c1ccc(Cl)cc1C(c1ccccc1F)=NC2 | 5.44 |
| CS(=O)(=O)Nc1ccc(Nc2c3ccccc3nc3ccccc23)c(Cl)c1 | 6.34 |
| COc1cccc(Nc2c3ccccc3nc3ccccc23)c1 | 7.21 |
| Cc1nc2c(/C=C/Cc3ccccc3)cccn2c1N | 6.75 |
| COc1cc(NS(C)(=O)=O)ccc1Nc1c2ccccc2nc2c(F)cccc12 | 6.33 |
| O=C(Nc1ccccc1)Nc1ccc(Nc2c3ccccc3nc3ccccc23)cc1 | 7.67 |
| COc1cc(NS(C)(=O)=O)ccc1Nc1c2ccccc2nc2cnccc12 | 5.53 |
| COc1cc(NS(C)(=O)=O)ccc1Nc1c2ccccc2nc2cc([N+](=O)[O-])ccc12 | 5.72 |
| CCC(C)NCc1cccc(S(=O)(=O)c2csc(S(N)(=O)=O)c2)c1.Cl (centres undefined) | 7.45 |

| SMILES | pKa |
| --- | --- |
| N[C@H]1C[C@@H]1c1ccccc1 | 8.5 |
| Brc1ncc[nH]1 | 3.79 |
| CC(C)n1c(/C=C/C(O)CC(O)CC(=O)O)c(-c2ccc(F)cc2)c2ccccc21 (centres undefined) | 4.31 |
| COc1cc(NS(C)(=O)=O)ccc1Nc1c2ccccc2nc2cc(C(F)(F)F)ccc12 | 6.24 |
| Cl.Cl.NCCS | 9.11 |
| CC(=O)Nc1ccc(Nc2c3ccccc3nc3ccccc23)cc1 | 7.51 |
| c1ccc(Nc2c3ccccc3nc3ccccc23)nc1 | 6.32 |
| Nc1cccc(Nc2c3ccccc3nc3ccccc23)c1 | 7.58 |
| Cc1ccc(N=C2NCCN2)c(Cl)c1 | 9.41 |
| Cc1nc2c3c(ccn2c1CC#N)CCC(c1ccccc1)O3 (centres undefined) | 6 |
| c1cnon1 | -5 |
| Clc1cc(Cl)c(N=C2NCCN2)c(Cl)c1 | 7.75 |
| Cc1cc(Br)cc(C)c1N=C1NCCN1 | 10.2 |
| Cc1cc(=O)oc2cc(O)ccc12 | 7.8 |
| CCN(CC)CCCN1c2cc(F)ccc2CCc2ccc(F)cc21.Cl | 7.6 |
| NCC(F)F | 7.3 |
| CN(C)CCNC(=O)c1cccc2ccc(-c3ccccc3)nc12 | 2.75 |
| c1ccc(-c2ncc[nH]2)cc1 | 6.48 |
| O=S(=O)(Nc1ccc(Nc2c3ccccc3nc3ccccc23)cc1)c1ccccc1 | 7.09 |
| CC(=O)N[C@@H](Cc1cc(F)cc(F)c1)[C@H](O)CNC1(c2cccc(C(C)(C)C)c2)CCCCC1 | 8.1 |
| Cc1cnc(NCCc2ccccc2)c(=O)n1CC(=O)NC[C@H]1CN=C(N)NC1 | 14 |
| CC(C)Oc1ccc(-c2nc(-c3ccc4c(c3)CCN(C(CO)CO)CC4)no2)cc1C#N | 7.8 |
| CCOc1ccccc1Nc1c2ccccc2nc2ccccc12 | 7.85 |
| c1nnn[nH]1 | -3 |
